{"source": "patent US7507749B2", "about": "“Antitumor agents” (priority 2001, dated 2009)", "key": {"[1]": {"system": "colon carcinoma 26", "details": "Cg 3; IV 50 mg/kg/inj days 6,8,10,13,15; total 250 mg/kg", "method": "In this trial the R-enantiomers of XK-469, compound 22c, and compound 22b were compared against advanced staged colon carcinoma 26 in female Balb/c mice. […] Cage #2 was 22b at 400 mg/kg and Cage #4 was 22c at 400 mg/kg.\nThe XK469-R, 22b, and 22c compound doses were all prepared the same, using 3% ethanol, 1% POE-80, and 0.5% sodium bicarbonate. The injection volume was 0.2 mu/mouse IV. […] The mice were Balb/c female mice: DOB Feb. 12, 2001; DOA Mar. 27, 2001; DOT Sep. 8, 2001, with an average body weight of 24.7 grams at the start of Rx administration. The tumor was Colon Carcinoma-26 passage 141; date of implant Sep. 8, 2001, and implanted at 30 to 60 mg fragments bilaterally SC. All tumors were 63 to 171 mg on day 6, the day of first Rx."}, "[2]": {"system": "mammary adenocarcinoma-16/C", "experiment": "Test F: R-enantiomers of 22b and 22c against early staged mammary adenocarcinoma-16/C", "format": "in vivo, C3H female mice", "method": "C3H female mice were obtained from N.C.I. (D.O.B. was […]; D.O.A. was Jan. 27, 2001). The mice weighed an average of 19.2 gm. Mice were implanted SC with mammary adenocarcinoma-16/C passage-170, a fast growing, highly invasive, highly metastatic tumor (D.O.T. was Mar. 8, 2001; Td was 1.2 days).\nThe R-enantiomers of both Compound 22c and Compound 22b were each suspended in 3% ethanol, 1% POE-80, 0.5% sodium bicarbonate (by volume) to effect solution, P.B.S. was then added and the pH adjusted to 7 with HCl. Adriamycin (ADRIA; lot number 20338c) was suspended in dH2O to effect solution and the pH was adjusted to 6.0. Mice were administered 0.2 ml per IV injection."}, "[3]": {"system": "mammary adenocarcinoma-17/Adr", "experiment": "Test E: R-enantiomer of compound 22b and compound 22a against early stage mammary adenocarcinoma-17/Adr", "format": "in vivo", "method": "Then, P.B.S. was added and the pH adjusted to 7 with HCl. A volume of 0.2 ml per injection was administered to animals intravenously. […] Then, P.B.S. was added and the pH was adjusted to 7 with HCl. A volume of 0.2 ml per injection was administered to animals intravenously."}, "[4]": {"details": "Cage 5, IV 50 mg/kg/inj qd 1-5, total 250 mg/kg"}, "[5]": {"details": "Cage 5, IV 50 mg/kg/inj qd 1-5, total 250 mg/kg, listed as R-enantiomer of compound 22b"}, "[6]": {"details": "Cage 6, IV 50 mg/kg/inj days 1,3,5,7, total 200 mg/kg"}, "[7]": {"details": "Cage 7, IV 30 mg/kg/inj days 1,3,5,7, total 120 mg/kg"}, "[8]": {"details": "Cage 6, IV 83 mg/kg/inj qd 1-4, total 332 mg/kg"}, "[9]": {"details": "Cage 7, IV 55 mg/kg/inj qd 1-4, total 220 mg/kg"}, "[10]": {"details": "Cage 7, IV 55 mg/kg/inj qd 1-4, total 220 mg/kg, listed as R-enantiomer of compound 22b"}, "[11]": {"details": "Cage 8 (one mouse), IV single bolus 124.5 mg/kg day 1"}}}
{"smiles": "C[C@@H](Oc1ccc(Oc2ccc3ccc(Cl)cc3n2)cc1)C(=O)O", "note": "[Compound R-22b, (R) 2-[4-(7-chloroquinolin-2-yloxy)phenoxy]propanoic acid]", "values": [{"measurement": "% Body Wt change at nadir", "setting": "[1]", "value": "−6.2", "unit": "%"}, {"measurement": "Activity Rating", "setting": "[1]", "value": "++ (1.3-1.9)"}, {"measurement": "CR's", "setting": "[1]", "value": "1/6"}, {"measurement": "Drug Deaths", "setting": "[1]", "value": "0/6"}, {"measurement": "Growth Delay", "setting": "[1]", "value": 8, "unit": "days"}, {"measurement": "Log Kill", "setting": "[1]", "value": 1.4}, {"measurement": "Median time for tumors to 700 mg (range)", "setting": "[1]", "value": "21 (15.5-48) days"}, {"measurement": "PR's", "setting": "[1]", "value": "1/6"}, {"measurement": "Tumor Free day-156", "setting": "[1]", "value": "0/6"}, {"measurement": "day of nadir", "setting": "[1]", "value": 16, "unit": "days"}, {"measurement": "% T/C mass", "setting": "[2]; [4]", "value": 0, "unit": "%"}, {"measurement": "Activity Rating", "setting": "[2]; [4]", "value": "+++ (2.0-2.8)"}, {"measurement": "Drug Deaths", "setting": "[2]; [4]", "value": "0/5"}, {"measurement": "Growth Delay", "setting": "[2]; [4]", "value": 7.0, "unit": "days"}, {"measurement": "Log Kill", "setting": "[2]; [4]", "value": 2.1}, {"measurement": "Median Tumor Mass on Day 10 (Range)", "setting": "[2]; [4]", "value": 0, "unit": "mg"}, {"measurement": "Median time for tumors to 1000 mg (range)", "setting": "[2]; [4]", "value": "16.5 (13.5-18) days"}, {"measurement": "Tumor Free day-155", "setting": "[2]; [4]", "value": "0/5"}, {"measurement": "% T/C mass", "setting": "[2]; [5]", "value": 0, "unit": "%"}, {"measurement": "Drug Deaths", "setting": "[2]; [5]", "value": "no deaths"}, {"measurement": "% T/C mass", "setting": "[2]; [6]", "value": 5, "unit": "%"}, {"measurement": "Activity Rating", "setting": "[2]; [6]", "value": "++ (1.3-1.9)"}, {"measurement": "Drug Deaths", "setting": "[2]; [6]", "value": "0/5"}, {"measurement": "Growth Delay", "setting": "[2]; [6]", "value": 5.8, "unit": "days"}, {"measurement": "Log Kill", "setting": "[2]; [6]", "value": 1.7}, {"measurement": "Median Tumor Mass on Day 10 (Range)", "setting": "[2]; [6]", "value": 75, "unit": "mg"}, {"measurement": "Median time for tumors to 1000 mg (range)", "setting": "[2]; [6]", "value": "15.3 (14-17) days"}, {"measurement": "Tumor Free day-155", "setting": "[2]; [6]", "value": "0/5"}, {"measurement": "% T/C mass", "setting": "[2]; Cage 6, IV 50 mg/kg/inj days 1,3,5,7, total 200 mg/kg, listed as R-enantiomer of compound 22b", "value": 5, "unit": "%"}, {"measurement": "% T/C mass", "setting": "[2]; [7]", "value": 32, "unit": "%"}, {"measurement": "Activity Rating", "setting": "[2]; [7]", "value": "+ (0.7-1.2)"}, {"measurement": "Drug Deaths", "setting": "[2]; [7]", "value": "0/5"}, {"measurement": "Growth Delay", "setting": "[2]; [7]", "value": 2.5, "unit": "days"}, {"measurement": "Log Kill", "setting": "[2]; [7]", "value": 0.8}, {"measurement": "Median Tumor Mass on Day 10 (Range)", "setting": "[2]; [7]", "value": 486, "unit": "mg"}, {"measurement": "Median time for tumors to 1000 mg (range)", "setting": "[2]; [7]", "value": "12 (11.5-14) days"}, {"measurement": "Tumor Free day-155", "setting": "[2]; [7]", "value": "0/5"}, {"measurement": "% T/C mass", "setting": "[2]; Cage 7, IV 30 mg/kg/inj days 1,3,5,7, total 120 mg/kg, listed as R-enantiomer of compound 22b", "value": 32, "unit": "%"}, {"measurement": "Neuromuscular toxicity", "setting": "[2]; mouse, in vivo, iv", "value": "completely devoid of neuromuscular toxicity"}, {"measurement": "Neuromuscular toxicity", "setting": "[3]; Cage 6, IV 83 mg/kg/inj qd 1-4", "value": "neuromuscular toxicity was not produced"}, {"measurement": "% Body Wt Loss at Nadir", "setting": "[3]; [8]", "value": "−17.5", "unit": "%"}, {"measurement": "% T/C mass", "setting": "[3]; [8]", "value": "toxic"}, {"measurement": "Activity Rating", "setting": "[3]; [8]", "value": "toxic"}, {"measurement": "Cause of death", "setting": "[3]; [8]", "value": "GI-epithelial damage"}, {"measurement": "Day of Nadir", "setting": "[3]; [8]", "value": 6, "unit": "days"}, {"measurement": "Drug Deaths", "setting": "[3]; [8]", "value": "5/5"}, {"measurement": "Median Tumor Mass on day 9 (Range)", "setting": "[3]; [8]", "value": "toxic"}, {"measurement": "Tumor Free day-23", "setting": "[3]; [8]", "value": "0/5"}, {"measurement": "Drug Deaths", "setting": "[3]; Cage 6, IV 83 mg/kg/inj qd 1-4, total 332 mg/kg, listed as R-enantiomer of compound 22b", "value": "killing all of the 5 mice"}, {"measurement": "% Body Wt Loss at Nadir", "setting": "[3]; [9]", "value": "−23.4", "unit": "%"}, {"measurement": "% T/C mass", "setting": "[3]; [9]", "value": 0, "unit": "%"}, {"measurement": "Activity Rating", "setting": "[3]; [9]", "value": "++++ (>2.8)"}, {"measurement": "Cause of death", "setting": "[3]; [9]", "value": "GI-epithelial damage (diarrhea) complicated with marrow toxicity"}, {"measurement": "Day of Nadir", "setting": "[3]; [9]", "value": 9, "unit": "days"}, {"measurement": "Day of full recovery of body weight", "setting": "[3]; [9]", "value": 14, "unit": "days"}, {"measurement": "Day tumors reached 1000 mg (range)", "setting": "[3]; [9]", "value": "22 (18-23) day"}, {"measurement": "Drug Deaths", "setting": "[3]; [9]", "value": "1/5"}, {"measurement": "Growth Delay", "setting": "[3]; [9]", "value": 13, "unit": "days"}, {"measurement": "Log Kill", "setting": "[3]; [9]", "value": 3.3}, {"measurement": "Median Tumor Mass on day 9 (Range)", "setting": "[3]; [9]", "value": "0 (all zeros) mg"}, {"measurement": "Tumor Free day-23", "setting": "[3]; [9]", "value": "0/5"}, {"measurement": "% Body Wt Loss at Nadir", "setting": "[3]; [10]", "value": "−23.4", "unit": "%"}, {"measurement": "% T/C mass", "setting": "[3]; [10]", "value": 0, "unit": "%"}, {"measurement": "% Body Wt Loss at Nadir", "setting": "[3]; [11]", "value": 0, "unit": "%"}, {"measurement": "Activity Rating", "setting": "[3]; [11]", "value": "+ (0.7-1.2)"}, {"measurement": "Day of Nadir", "setting": "[3]; [11]", "value": 9, "unit": "days"}, {"measurement": "Drug Deaths", "setting": "[3]; [11]", "value": "0/1"}, {"measurement": "Growth Delay", "setting": "[3]; [11]", "value": 3, "unit": "days"}, {"measurement": "Log Kill", "setting": "[3]; [11]", "value": 0.8}, {"measurement": "Median Tumor Mass on day 9 (Range)", "setting": "[3]; [11]", "value": "340 (one mouse) mg"}, {"measurement": "Neuromuscular toxicity", "setting": "[3]; [11]", "value": "no neuromuscular toxicity"}, {"measurement": "Tumor Free day-23", "setting": "[3]; [11]", "value": "0/1"}, {"measurement": "% T/C mass", "setting": "[3]; Cage 8 (one mouse), IV single bolus 124.5 mg/kg day 1, 124.5 mg/kg", "value": 35, "unit": "%"}, {"measurement": "% T/C mass", "setting": "[3]; Cage 8 (one mouse), IV single bolus 124.5 mg/kg day 1, listed as R-enantiomer of compound 22b, 124.5 mg/kg", "value": 35, "unit": "%"}]}
